Laboratory results: patent publication US11697646B2, “Triazole N-linked carbamoyl cyclohexyl acids as LPA antagonists” (BRISTOL-MYERS SQUIBB COMPANY, priority 2017, dated 2023)

These compounds were tested against T1, human LPA1 (Homo sapiens, UniProt Q92633) (assay: LPA1 functional antagonist assay (calcium flux)). Conditions: CHO cells overexpressing human LPA1; calcium flux induced by 10 nM LPA; read-out: hLPA1 IC50.
T1 construct: expressed in transfected cells; host or cells: Chinese hamster ovary (CHO) cells
T1 sequence (Q92633 whole entry): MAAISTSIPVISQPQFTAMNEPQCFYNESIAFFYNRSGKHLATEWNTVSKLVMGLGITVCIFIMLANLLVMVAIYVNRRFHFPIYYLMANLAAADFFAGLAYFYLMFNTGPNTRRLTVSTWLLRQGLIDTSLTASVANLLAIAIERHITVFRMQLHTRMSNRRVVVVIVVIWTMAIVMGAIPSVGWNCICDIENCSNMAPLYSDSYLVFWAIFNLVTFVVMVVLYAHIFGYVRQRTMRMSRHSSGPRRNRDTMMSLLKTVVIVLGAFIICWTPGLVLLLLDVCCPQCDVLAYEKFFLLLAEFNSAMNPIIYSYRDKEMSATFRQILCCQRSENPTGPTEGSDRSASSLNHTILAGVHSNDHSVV
Assay type: cell-based
Protocol: The effectiveness of compounds of the present invention as LPA1 inhibitors can be determined in an LPA1 functional antagonist assay as follows:
The cells were then equilibrated to room temperature for 30 minutes before the assay. […] IC50 values were determined by fitting data to a 4-parameter logistic equation (GraphPad Prism, San Diego Calif.).

| IC50 | Compound |
| --- | --- |
| 167 nM | Cc1nc(-c2nnn(C)c2CNS(=O)(=O)N(C)CC2CCCC2)ccc1O[C@H]1CCC[C@H](C(=O)O)C1 [Example 137, (1S,3S)-3-((6-(5-(((N-(cyclopentylmethyl)-N-methylsulfamoyl)amino)methyl)-1-methyl-1H-1,2,3-triazol-4-yl)-2-methylpyridin-3-yl)oxy)cyclohexane-1-carboxylicacid] |
| 449 nM | CCCCN(C)S(=O)(=O)NCc1c(-c2ccc(O[C@H]3CCC[C@H](C(=O)O)C3)c(C)n2)nnn1C [Example 138, (1S,3S)-3-((6-(5-(((N-butyl-N-methylsulfamoyl)amino)methyl)-1-methyl-1H-1,2,3-triazol-4-yl)-2-methylpyridin-3-yl)oxy)cyclohexane-1-carboxylic acid] |
| 313 nM | Cc1nc(-c2nnn(C)c2CNS(=O)(=O)N(C)Cc2ccccc2)ccc1O[C@H]1CCC[C@H](C(=O)O)C1 [Example 139, (1S,3S)-3-((6-(5-(((N-benzyl-N-methylsulfamoyl)amino)methyl)-1-methyl-1H-1,2,3-triazol-4-yl)-2-methylpyridin-3-yl)oxy)cyclohexane-1-carboxylic acid] |
| 29 nM | CCCC(C)OC(=O)Nc1c(-c2ccc(O[C@H]3CCC[C@H](C(=O)O)C3)c(C)n2)nnn1C (stereo partly drawn) [Example 140, (1S,3S)-3-((2-methyl-6-(1-methyl-5-(((pentan-2-yloxy)carbonyl)amino)-1H-1,2,3-triazol-4-yl)pyridin-3-yl)oxy)cyclohexane-1-carboxylic acid] |
| 78 nM | Cc1nc(-c2nnn(C)c2NC(=O)OC2CCCCC2)ccc1O[C@H]1CCC[C@H](C(=O)O)C1 [Example 141, (1S,3S)-3-((6-(5-(((cyclohexyloxy)carbonyl)amino)-1-methyl-1H-1,2,3-triazol-4-yl)-2-methylpyridin-3-yl)oxy)cyclohexane-1-carboxylic acid] |
| 30 nM | CCC(CC)OC(=O)Nc1c(-c2ccc(O[C@H]3CCC[C@H](C(=O)O)C3)c(C)n2)nnn1C [Example 142, (1S,3S)-3-((2-methyl-6-(1-methyl-5-(((pentan-3-yloxy)carbonyl)amino)-1H-1,2,3-triazol-4-yl)pyridin-3-yl)oxy)cyclohexane-1-carboxylic acid] |
| 478 nM | Cc1nc(-c2nnn(C)c2NC(=O)OCC(C)F)ccc1O[C@H]1CCC[C@H](C(=O)O)C1 (stereo partly drawn) [Example 143, (1S,3S)-3-((6-(5-(((2-fluoropropoxy)carbonyl)amino)-1-methyl-1H-1,2,3-triazol-4-yl)-2-methylpyridin-3-yl)oxy)cyclohexane-1-carboxylic acid] |
| 254 nM | Cc1nc(-c2nnn(C)c2NC(=O)OCCCF)ccc1O[C@H]1CCC[C@H](C(=O)O)C1 [Example 144, (1S,3S)-3-((6-(5-(((3-fluoropropoxy)carbonyl)amino)-1-methyl-1H-1,2,3-triazol-4-yl)-2-methylpyridin-3-yl)oxy)cyclohexane-1-carboxylic acid] |
| 43 nM | Cc1nc(-c2nnn(C)c2NC(=O)OCCC(F)(F)F)ccc1O[C@H]1CCC[C@H](C(=O)O)C1 [Example 145, (1S,3S)-3-((2-methyl-6-(1-methyl-5-(((3,3,3-trifluoropropoxy)carbonyl)amino)-1H-1,2,3-triazol-4-yl)pyridin-3-yl)oxy)cyclohexane-1-carboxylic acid] |
| 306 nM | Cc1nc(-c2nnn(C)c2NC(=O)N[C@H](C)C2CC2)ccc1O[C@H]1CCC[C@H](C(=O)O)C1 [Example 146, (1S,3S)-3-((6-(5-(3-((R)-1-cyclopropylethyl)ureido)-1-methyl-1H-1,2,3-triazol-4-yl)-2-methylpyridin-3-yl)oxy)cyclohexane-1-carboxylic acid] |
| 62 nM | CCc1nc(-c2nnn(C)c2CNC(=O)N(C)CC2CCC2)ccc1O[C@H]1CCC[C@H](C(=O)O)C1 [Example 148, (1S,3S)-3-((6-(5-((3-(cyclobutyl-methyl)-3-methylureido)methyl)-1-methyl-1H-1,2,3-triazol-4-yl)-2-ethylpyridin-3-yl)oxy)cyclohexane-1-carboxylic acid] |
